Reference: ChEMBL document CHEMBL3882729, “Receptor-type kinase modulators and methods of use” (2009)

How the values were obtained:
[1] = biological target: Ephrin type-A receptor 2 (Homo sapiens, UniProt P29317); test: Inhibition of recombinant human N-terminal His6-tagged EphA2 (N598 to R890 residues) expressed in baculovirus using poly-EY as substrate after 180 mins by luciferase coupled chemiluminescence assay
[2] = biological target: T1, Ephrin type-B receptor 4 (Homo sapiens, UniProt P54760); test: Inhibition of recombinant human N-terminal His6-tagged EphB4 kinase domain (E605 to E890 residues) expressed in baculovirus using poly-AEKY as substrate after 150 mins in presence of gamma33P-ATP by liquid scintillation spectrometry
T1 sequence (P54760 whole entry): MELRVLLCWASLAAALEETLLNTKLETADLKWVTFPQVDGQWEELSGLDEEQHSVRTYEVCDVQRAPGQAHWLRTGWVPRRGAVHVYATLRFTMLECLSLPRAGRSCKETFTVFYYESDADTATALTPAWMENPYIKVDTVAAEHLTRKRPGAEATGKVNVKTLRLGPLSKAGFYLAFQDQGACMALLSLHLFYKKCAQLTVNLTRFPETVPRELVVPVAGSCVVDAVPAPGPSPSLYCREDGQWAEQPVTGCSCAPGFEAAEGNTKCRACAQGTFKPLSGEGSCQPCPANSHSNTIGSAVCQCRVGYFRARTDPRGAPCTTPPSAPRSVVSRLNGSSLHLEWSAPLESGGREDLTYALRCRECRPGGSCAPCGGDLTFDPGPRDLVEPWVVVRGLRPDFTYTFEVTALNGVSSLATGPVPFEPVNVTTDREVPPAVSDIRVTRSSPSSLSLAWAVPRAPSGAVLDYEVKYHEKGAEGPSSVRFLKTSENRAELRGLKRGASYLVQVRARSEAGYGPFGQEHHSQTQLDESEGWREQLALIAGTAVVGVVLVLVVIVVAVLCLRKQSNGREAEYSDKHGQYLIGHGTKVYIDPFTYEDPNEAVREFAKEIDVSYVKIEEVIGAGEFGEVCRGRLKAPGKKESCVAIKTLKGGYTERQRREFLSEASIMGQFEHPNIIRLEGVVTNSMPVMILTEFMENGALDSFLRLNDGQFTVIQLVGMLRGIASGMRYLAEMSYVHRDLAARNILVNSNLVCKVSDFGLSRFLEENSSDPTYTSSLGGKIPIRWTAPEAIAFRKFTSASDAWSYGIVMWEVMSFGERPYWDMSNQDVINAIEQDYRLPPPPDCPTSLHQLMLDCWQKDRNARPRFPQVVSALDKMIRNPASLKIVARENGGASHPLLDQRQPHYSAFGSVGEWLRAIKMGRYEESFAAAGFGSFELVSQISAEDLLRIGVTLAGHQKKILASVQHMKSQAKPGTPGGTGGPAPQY

[3] = biological target: Vascular endothelial growth factor receptor 2 (Homo sapiens, UniProt P35968); test: Inhibition of recombinant human N-terminal GST-fused KDR (D807 to V1356 residues) expressed in baculovirus infected […] insect Sf9 cells using poly-EY as substrate after 240 mins by luciferase coupled chemiluminescence assay
Vascular endothelial growth factor receptor 2, sequence (P35968 whole entry, the tested form may be a part): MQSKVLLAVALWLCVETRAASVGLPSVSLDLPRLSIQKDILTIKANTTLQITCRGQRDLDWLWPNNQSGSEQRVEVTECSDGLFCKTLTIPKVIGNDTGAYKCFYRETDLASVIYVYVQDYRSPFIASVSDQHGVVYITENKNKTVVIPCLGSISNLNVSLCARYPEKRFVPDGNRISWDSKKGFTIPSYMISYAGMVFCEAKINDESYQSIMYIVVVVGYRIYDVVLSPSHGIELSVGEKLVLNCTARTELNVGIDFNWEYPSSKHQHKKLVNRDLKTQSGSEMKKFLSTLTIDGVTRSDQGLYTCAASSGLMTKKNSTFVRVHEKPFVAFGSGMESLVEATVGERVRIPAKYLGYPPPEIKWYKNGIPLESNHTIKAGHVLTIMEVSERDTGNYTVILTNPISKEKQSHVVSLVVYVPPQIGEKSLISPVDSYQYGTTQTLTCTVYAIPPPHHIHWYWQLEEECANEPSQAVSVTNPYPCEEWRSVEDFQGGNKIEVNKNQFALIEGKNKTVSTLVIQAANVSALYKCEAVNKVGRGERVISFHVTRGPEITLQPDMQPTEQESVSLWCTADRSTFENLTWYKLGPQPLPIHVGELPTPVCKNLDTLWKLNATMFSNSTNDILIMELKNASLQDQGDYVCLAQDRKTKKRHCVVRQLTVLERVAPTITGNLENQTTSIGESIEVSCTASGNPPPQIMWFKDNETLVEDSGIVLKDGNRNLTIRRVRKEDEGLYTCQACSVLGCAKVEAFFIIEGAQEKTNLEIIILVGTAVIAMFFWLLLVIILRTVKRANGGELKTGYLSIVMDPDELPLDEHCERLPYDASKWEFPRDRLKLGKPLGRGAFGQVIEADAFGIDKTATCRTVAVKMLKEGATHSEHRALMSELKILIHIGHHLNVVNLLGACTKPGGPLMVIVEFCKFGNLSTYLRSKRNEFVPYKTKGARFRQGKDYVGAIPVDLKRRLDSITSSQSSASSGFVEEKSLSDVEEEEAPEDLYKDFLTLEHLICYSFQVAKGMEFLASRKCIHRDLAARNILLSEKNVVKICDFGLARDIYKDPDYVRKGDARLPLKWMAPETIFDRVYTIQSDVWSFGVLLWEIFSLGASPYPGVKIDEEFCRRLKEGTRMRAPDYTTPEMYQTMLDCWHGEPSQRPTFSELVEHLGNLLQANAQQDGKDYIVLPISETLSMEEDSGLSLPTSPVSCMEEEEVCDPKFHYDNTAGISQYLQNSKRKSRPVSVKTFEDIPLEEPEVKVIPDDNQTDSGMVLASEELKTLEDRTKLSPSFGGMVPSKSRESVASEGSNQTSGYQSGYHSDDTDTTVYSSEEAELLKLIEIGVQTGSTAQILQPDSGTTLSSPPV

Ephrin type-A receptor 2, sequence (P29317 whole entry, the tested form may be a part): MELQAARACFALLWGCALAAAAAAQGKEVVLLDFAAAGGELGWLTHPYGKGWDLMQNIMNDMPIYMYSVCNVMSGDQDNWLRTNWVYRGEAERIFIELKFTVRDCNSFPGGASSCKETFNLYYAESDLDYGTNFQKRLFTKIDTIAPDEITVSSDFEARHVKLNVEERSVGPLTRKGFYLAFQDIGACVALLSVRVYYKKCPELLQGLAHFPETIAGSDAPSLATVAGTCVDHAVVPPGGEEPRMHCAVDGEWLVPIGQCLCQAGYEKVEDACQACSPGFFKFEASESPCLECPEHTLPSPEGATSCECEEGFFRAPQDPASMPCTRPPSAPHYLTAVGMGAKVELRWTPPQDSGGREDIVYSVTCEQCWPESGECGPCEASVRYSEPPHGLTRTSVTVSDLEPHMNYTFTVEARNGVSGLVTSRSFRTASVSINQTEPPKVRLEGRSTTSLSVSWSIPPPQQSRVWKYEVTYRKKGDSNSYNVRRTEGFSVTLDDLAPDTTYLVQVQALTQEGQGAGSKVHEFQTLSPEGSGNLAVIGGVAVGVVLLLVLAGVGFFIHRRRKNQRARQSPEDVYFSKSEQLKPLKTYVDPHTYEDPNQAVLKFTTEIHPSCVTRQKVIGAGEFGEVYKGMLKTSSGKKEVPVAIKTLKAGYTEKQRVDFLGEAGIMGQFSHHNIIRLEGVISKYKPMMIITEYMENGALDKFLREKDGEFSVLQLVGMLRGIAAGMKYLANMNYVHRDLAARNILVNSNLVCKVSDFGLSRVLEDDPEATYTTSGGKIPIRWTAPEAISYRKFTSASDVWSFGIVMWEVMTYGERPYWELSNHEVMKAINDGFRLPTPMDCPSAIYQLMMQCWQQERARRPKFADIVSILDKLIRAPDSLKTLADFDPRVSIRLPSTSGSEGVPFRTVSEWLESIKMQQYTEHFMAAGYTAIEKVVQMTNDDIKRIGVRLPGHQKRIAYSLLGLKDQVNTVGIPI

**Q.** Which results are given for `CCC1(C)CN(C)CC(COc2cc3ncnc(Nc4ccc(Cl)c(Cl)c4)c3cc2OC)O1` (configuration not stated)?
**A.** IC50 [1]: 50 to 1000 nM; IC50 [2]: 50 to 1000 nM; IC50 [3]: 50 to 1000 nM

**Q.** For `CC[C@@H](C)CN1CCOC(COc2cc3ncnc(Nc4ccc(Cl)c(Cl)c4)c3cc2OC)C1` (some centres not stated), which IC50 [1] is on record?
**A.** Its IC50 is 50 to 1000 nM.

**Q.** What about the IC50 [2] of the same compound?
**A.** Its IC50 is 50 to 1000 nM.

**Q.** And the IC50 [3]?
**A.** Its IC50 is 50 to 1000 nM.

**Q.** Which IC50 [2] does the source give for `COc1cc2c(Nc3ccc(Cl)c(Cl)c3)ncnc2cc1OCc1csc(CN(C)C)n1` here?
**A.** The IC50 was 50 to 1000 nM.

**Q.** How did the IC50 [1] turn out when `COc1cc2c(Nc3ccc(Br)cc3C)ncnc2cc1OCC1CN(C)CCO1` (configuration not stated) was run?
**A.** The IC50 was 50 to 1000 nM.

**Q.** What about the IC50 [2] of the same compound?
**A.** The IC50 was 50 to 1000 nM.

**Q.** What about the IC50 [3] of the same compound?
**A.** Its IC50 is 50 to 1000 nM.

**Q.** How did the IC50 [1] turn out when `COc1cc2c(Nc3ccc(Cl)cc3F)ncnc2cc1OCC1CN(C)CCO1` (configuration not stated) was run?
**A.** The IC50 was 50 to 1000 nM.

**Q.** What about the IC50 [2] of the same compound?
**A.** The IC50 was 50 to 1000 nM.

**Q.** What about the IC50 [3] of the same compound?
**A.** The IC50 was < 50 nM.

**Q.** `COc1cc2c(Nc3ccc(Br)cc3F)ncnc2cc1OCC1CCN(C(N)=NC#N)CC1` was tested. Which IC50 [1] did it give?
**A.** The IC50 was 50 to 1000 nM.

**Q.** And the IC50 [2]?
**A.** Its IC50 is 50 to 1000 nM.

**Q.** What about the IC50 [3] of the same compound?
**A.** Its IC50 is < 50 nM.

**Q.** `COCCOc1cc2c(Nc3ccc(Cl)c(Cl)c3)ncnc2cc1OCC1CN(C)CCO1` (configuration not stated) was tested. Which IC50 [1] did it give?
**A.** The IC50 was 50 to 1000 nM.

**Q.** And the IC50 [2]?
**A.** Its IC50 is < 50 nM.

**Q.** And the IC50 [3]?
**A.** Its IC50 is 50 to 1000 nM.

**Q.** What does the source list for `COc1cc2c(Nc3ccc(Cl)c(Cl)c3)ncnc2cc1OCc1csc(CN2CCCC2)n1`?
**A.** IC50 [1]: 50 to 1000 nM; IC50 [2]: 50 to 1000 nM; IC50 [3]: 50 to 1000 nM

**Q.** Which IC50 [1] does the source give for `COc1cc2c(Nc3ccc(Cl)c(Cl)c3)ncnc2cc1OCC1CN(C(=O)c2c(F)ccc(F)c2F)CCO1` (configuration not stated) here?
**A.** The IC50 was 50 to 1000 nM.

**Q.** What about the IC50 [2] of the same compound?
**A.** The IC50 was 50 to 1000 nM.

**Q.** What about the IC50 [3] of the same compound?
**A.** Its IC50 is 50 to 1000 nM.

**Q.** How did the IC50 [1] turn out when `COC(=O)CCC(=O)N1CCOC(COc2cc3ncnc(Nc4ccc(Cl)c(Cl)c4)c3cc2OC)C1` (configuration not stated) was run?
**A.** The IC50 was 50 to 1000 nM.

**Q.** What about the IC50 [2] of the same compound?
**A.** The IC50 was 50 to 1000 nM.

**Q.** And the IC50 [3]?
**A.** The IC50 was 50 to 1000 nM.

**Q.** `COc1cc2c(Nc3ccc(Cl)c(Cl)c3)ncnc2cc1OCC1CN(/C(=N/C#N)N2CCN(C)CC2)CCO1` (configuration not stated) was tested. Which IC50 [1] did it give?
**A.** The IC50 was 50 to 1000 nM.

**Q.** And the IC50 [2]?
**A.** The IC50 was < 50 nM.

**Q.** And the IC50 [3]?
**A.** The IC50 was < 50 nM.

**Q.** For `CCC#CCN1CCOC(COc2cc3ncnc(Nc4ccc(Cl)c(Cl)c4)c3cc2OC)C1` (configuration not stated), which IC50 [1] is on record?
**A.** Its IC50 is 50 to 1000 nM.

**Q.** And the IC50 [2]?
**A.** Its IC50 is 50 to 1000 nM.

**Q.** And the IC50 [3]?
**A.** Its IC50 is 50 to 1000 nM.

**Q.** For `COc1cc2c(Nc3ccc(Cl)c(Cl)c3)ncnc2cc1OCC1CN(CCF)CCO1` (configuration not stated), which IC50 [1] is on record?
**A.** The IC50 was 50 to 1000 nM.

**Q.** What about the IC50 [2] of the same compound?
**A.** Its IC50 is 50 to 1000 nM.

**Q.** And the IC50 [3]?
**A.** The IC50 was 50 to 1000 nM.

**Q.** For `COc1cc(Nc2ncnc3cc(OCC4CN(C)CCO4)c(OC)cc23)c(OC)cc1Cl` (configuration not stated), which IC50 [1] is on record?
**A.** Its IC50 is 50 to 1000 nM.

**Q.** What about the IC50 [2] of the same compound?
**A.** Its IC50 is 50 to 1000 nM.

**Q.** And the IC50 [3]?
**A.** The IC50 was 1000 to 20000 nM.

**Q.** `CCC(C(=O)N1CCOC(COc2cc3ncnc(Nc4ccc(Cl)c(Cl)c4)c3cc2OC)C1)c1ccccc1` (configuration not stated) was tested. Which IC50 [1] did it give?
**A.** Its IC50 is 1000 to 20000 nM.

**Q.** And the IC50 [2]?
**A.** Its IC50 is 50 to 1000 nM.

**Q.** And the IC50 [3]?
**A.** The IC50 was 50 to 1000 nM.

**Q.** Which IC50 [1] does the source give for `COc1cc2c(Nc3ccc(Br)cc3Cl)ncnc2cc1OCC1CN(C)CCO1` (configuration not stated) here?
**A.** The IC50 was 50 to 1000 nM.

**Q.** And the IC50 [2]?
**A.** Its IC50 is 50 to 1000 nM.

**Q.** And the IC50 [3]?
**A.** The IC50 was 50 to 1000 nM.

**Q.** What does the source list for `COc1cc2c(Nc3cccc(Br)c3Cl)ncnc2cc1OCC1CN(C)CCO1` (configuration not stated)?
**A.** IC50 [1]: 50 to 1000 nM; IC50 [2]: < 50 nM; IC50 [3]: 50 to 1000 nM

**Q.** How did the IC50 [1] turn out when `CCCCCCCN1CCOC(COc2cc3ncnc(Nc4ccc(Cl)c(Cl)c4)c3cc2OC)C1` (configuration not stated) was run?
**A.** The IC50 was 1000 to 20000 nM.

**Q.** What about the IC50 [2] of the same compound?
**A.** Its IC50 is 50 to 1000 nM.

**Q.** What about the IC50 [3] of the same compound?
**A.** The IC50 was 50 to 1000 nM.

**Q.** `COc1ccc(-c2nc(COc3cc4ncnc(Nc5ccc(Cl)c(Cl)c5)c4cc3OC)no2)cc1` was tested. Which IC50 [1] did it give?
**A.** The IC50 was 1000 to 20000 nM.

**Q.** For `COc1cc2c(Nc3ccc(Cl)c(Cl)c3)ncnc2cc1OCC1CN(CC2CCCCC2)CCCO1` (configuration not stated), which IC50 [1] is on record?
**A.** Its IC50 is 50 to 1000 nM.

**Q.** What about the IC50 [2] of the same compound?
**A.** Its IC50 is 50 to 1000 nM.

**Q.** And the IC50 [3]?
**A.** The IC50 was < 50 nM.

**Q.** What does the source list for `COc1cc2c(Nc3cccc(Cl)c3F)ncnc2cc1OCC1CN(C)CCO1` (configuration not stated)?
**A.** IC50 [1]: 50 to 1000 nM; IC50 [2]: 50 to 1000 nM; IC50 [3]: 50 to 1000 nM

**Q.** With `COc1cc2c(Nc3ccc(Cl)c(Cl)c3)ncnc2cc1OCC1CN(CCCCF)CCO1` (configuration not stated) as the compound, how does the IC50 [1] read?
**A.** Its IC50 is 50 to 1000 nM.

**Q.** And the IC50 [2]?
**A.** Its IC50 is < 50 nM.

**Q.** What about the IC50 [3] of the same compound?
**A.** Its IC50 is < 50 nM.

**Q.** `CCCCCC(=O)N1CCOC(COc2cc3ncnc(Nc4ccc(Cl)c(Cl)c4)c3cc2OC)C1` (configuration not stated) was tested. Which IC50 [1] did it give?
**A.** The IC50 was 50 to 1000 nM.

**Q.** What about the IC50 [2] of the same compound?
**A.** The IC50 was 50 to 1000 nM.

**Q.** And the IC50 [3]?
**A.** Its IC50 is 50 to 1000 nM.

**Q.** How did the IC50 [1] turn out when `COc1cc2c(Nc3ccc(Cl)c(Cl)c3)ncnc2cc1OCC1CN(CCC(C)C)CCCO1` (configuration not stated) was run?
**A.** The IC50 was 50 to 1000 nM.

**Q.** What about the IC50 [2] of the same compound?
**A.** The IC50 was 50 to 1000 nM.

**Q.** And the IC50 [3]?
**A.** Its IC50 is 50 to 1000 nM.

**Q.** With `COc1cc2c(Nc3ccc(Cl)cc3Cl)ncnc2cc1OCC1CN(C)CCO1` (configuration not stated) as the compound, how does the IC50 [1] read?
**A.** The IC50 was 50 to 1000 nM.

**Q.** What about the IC50 [2] of the same compound?
**A.** The IC50 was 50 to 1000 nM.

**Q.** What about the IC50 [3] of the same compound?
**A.** The IC50 was 50 to 1000 nM.

**Q.** With `COc1cc2c(Nc3ccc(Cl)c(Cl)c3)ncnc2cc1OCC1CN(C(=O)c2ccoc2)CCO1` (configuration not stated) as the compound, how does the IC50 [1] read?
**A.** Its IC50 is 50 to 1000 nM.

**Q.** And the IC50 [2]?
**A.** The IC50 was < 50 nM.

**Q.** What about the IC50 [3] of the same compound?
**A.** Its IC50 is 50 to 1000 nM.

**Q.** What does the source list for `COc1cc2c(Nc3ccc(Cl)c(Cl)c3)ncnc2cc1OCC1CN(S(=O)(=O)c2ccccc2)CCO1` (configuration not stated)?
**A.** IC50 [1]: 1000 to 20000 nM; IC50 [2]: 50 to 1000 nM; IC50 [3]: 50 to 1000 nM
